Measurements as given in ChEMBL document CHEMBL1949506, “Discovery of CS-2100, a potent, orally active and S1P3-sparing S1P1 agonist” (Bioorg Med Chem Lett, 2012).

Columns and labels:
[1] = biological target: Sphingosine 1-phosphate receptor 3 (Homo sapiens, UniProt Q99500); experiment: Agonist activity at human S1P3 receptor assessed as stimulation of [35S]GTPgamma binding; format: functional
[2] = test system: Rattus norvegicus; experiment: Immunosuppressive activity in po dosed LEW rat model assessed as inhibition of WKAH rat spleen cells-induced popliteal lymph node swelling administered qd for 4 days measured at day 4 by host versus graft reaction analysis; format: functional; conditions: 96 h, read-out: ID50 (the source's name)
[3] = biological target: Sphingosine 1-phosphate receptor 1 (Homo sapiens, UniProt P21453); experiment: Agonist activity at human S1P1 receptor assessed as stimulation of [35S]GTPgamma binding; format: functional
[4] = test system: Rattus norvegicus; experiment: Immunosuppressive activity in LEW rat model assessed as inhibition of WKAH rat spleen cells-induced popliteal lymph node swelling at 1 mg/kg, po administered qd for 4 days measured at day 4 by host versus graft reaction analysis; format: functional; conditions: 96 h
[5] = species: Homo sapiens; experiment: Selectivity ratio of EC50 for human S1P3 receptor to EC50 for human S1P1 receptor

Sequence of Sphingosine 1-phosphate receptor 3 (Q99500 whole entry): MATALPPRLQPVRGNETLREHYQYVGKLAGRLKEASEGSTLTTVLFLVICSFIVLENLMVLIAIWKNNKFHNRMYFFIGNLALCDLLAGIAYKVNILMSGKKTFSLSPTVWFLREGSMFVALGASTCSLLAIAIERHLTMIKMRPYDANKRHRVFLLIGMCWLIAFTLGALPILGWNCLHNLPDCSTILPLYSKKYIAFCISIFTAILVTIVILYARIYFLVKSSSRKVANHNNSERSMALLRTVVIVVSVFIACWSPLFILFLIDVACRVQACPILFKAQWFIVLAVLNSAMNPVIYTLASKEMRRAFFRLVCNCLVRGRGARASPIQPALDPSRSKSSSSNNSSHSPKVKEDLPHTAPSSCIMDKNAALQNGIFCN
Sequence of Sphingosine 1-phosphate receptor 1 (P21453 whole entry): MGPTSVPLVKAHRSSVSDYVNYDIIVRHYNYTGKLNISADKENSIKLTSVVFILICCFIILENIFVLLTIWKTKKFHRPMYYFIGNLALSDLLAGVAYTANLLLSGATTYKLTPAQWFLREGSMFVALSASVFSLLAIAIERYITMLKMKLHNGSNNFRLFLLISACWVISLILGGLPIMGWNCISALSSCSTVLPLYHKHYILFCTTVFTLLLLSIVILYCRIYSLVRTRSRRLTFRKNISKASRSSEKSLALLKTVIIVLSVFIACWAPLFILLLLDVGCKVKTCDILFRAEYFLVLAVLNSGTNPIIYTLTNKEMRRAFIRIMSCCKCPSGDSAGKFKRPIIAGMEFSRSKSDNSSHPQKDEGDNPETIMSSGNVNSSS

EC50 [1] [nM] | EC50 [3] [nM] | Ratio EC50 [5] | Compound | ED50 [2] [mg/kg] | inhibition in vivo at 1 mg/kg [4] [%]
> 20000 | 6.5 | – | CCc1cc(CN2CC(C(=O)O)C2)sc1-c1noc(-c2ccc(Oc3ccccc3Cl)cc2)n1 | 0.461 | –
4500 | 3 | – | CCc1cc(CN2CC(C(=O)O)C2)sc1-c1noc(-c2ccc(Oc3ccccc3C)cc2)n1 | – | 35
4600 | 8.5 | 541 | O=C(O)C1CN(Cc2cc(-c3noc(-c4ccc(Oc5ccccc5)cc4)n3)cs2)C1 | – | –
800 | 6.5 | 123 | O=C(O)C1CN(Cc2cc(-c3noc(-c4cc(-c5ccccc5)c(C(F)(F)F)s4)n3)cs2)C1 | – | –
11000 | 4.5 | – | CCc1cc(CN2CC(C(=O)O)C2)sc1-c1noc(-c2ccc(Oc3ccccc3C(C)C)cc2)n1 | – | –
> 20000 | 30 | > 666 | O=C(O)C1CN(Cc2cc(-c3noc(-c4ccc(-c5ccccc5)cc4)n3)cs2)C1 | – | –
> 20000 | 9 | – | CCCCc1ccccc1Oc1ccc(-c2nc(-c3sc(CN4CC(C(=O)O)C4)cc3CC)no2)cc1 | – | 66
10000 | 6.5 | – | CCc1ccccc1Oc1ccc(-c2nc(-c3sc(CN4CC(C(=O)O)C4)cc3CC)no2)cc1 | – | 62
13000 | 30 | 433 | CCCc1cc(CN2CC(C(=O)O)C2)sc1-c1noc(-c2ccc(Oc3ccccc3)cc2)n1 | – | –
> 20000 | 11 | > 1820 | Cc1cc(CN2CC(C(=O)O)C2)sc1-c1noc(-c2ccc(Oc3ccccc3)cc2)n1 | – | –
6000 | 7.5 | – | CCc1cc(CN2CC(C(=O)O)C2)sc1-c1noc(-c2ccc(Oc3ccccc3)c(C)c2)n1 | – | –
900 | 1 | 900 | O=C(O)C1CN(Cc2ccc(-c3noc(-c4ccc(Oc5ccccc5)cc4)n3)s2)C1 | – | –
> 20000 | 600 | > 33 | Cc1cc(Oc2ccccc2)ccc1-c1nc(-c2csc(CN3CC(C(=O)O)C3)c2)no1 | – | –
> 20000 | 25 | > 800 | Cc1cc(-c2noc(-c3ccc(Oc4ccccc4)cc3)n2)sc1CN1CC(C(=O)O)C1 | – | –
> 20000 | 13 | – | CCCc1ccccc1Oc1ccc(-c2nc(-c3sc(CN4CC(C(=O)O)C4)cc3CC)no2)cc1 | – | 56
> 20000 | 5 | – | CCc1cc(CN2CC(C(=O)O)C2)sc1-c1noc(-c2ccc(Oc3ccccc3)c(Cl)c2)n1 | – | 49

EC50 [1] [nM] | EC50 [3] [nM] | Ratio EC50 [5] | Compound | ED50 [2] [mg/kg] | inhibition in vivo at 1 mg/kg [4] [%]
> 20000 | 200 | > 100 | Cc1cccc(Oc2ccc(-c3nc(-c4csc(CN5CC(C(=O)O)C5)c4)no3)cc2)c1 | – | –
> 20000 | 34 | > 588 | O=C(O)C1CN(Cc2csc(-c3noc(-c4ccc(Oc5ccccc5)cc4)n3)c2)C1 | – | –
> 20000 | 12 | > 1670 | CCc1cc(-c2noc(-c3ccc(Oc4ccccc4)cc3)n2)sc1CN1CC(C(=O)O)C1 | – | –
15000 | 75 | 200 | CC(C)c1cc(CN2CC(C(=O)O)C2)sc1-c1noc(-c2ccc(Oc3ccccc3)cc2)n1 | – | –
1600 | 4.2 | 380 | O=C(O)C1CN(Cc2ccc(-c3noc(-c4cc(-c5ccccc5)c(C(F)(F)F)s4)n3)cc2)C1 | – | –
> 20000 | > 20000 | – | O=C(O)C1CN(Cc2cc(-c3noc(-c4ccc(OCc5ccccc5)cc4)n3)cs2)C1 | – | –
> 20000 | 5 | – | CCc1cc(CN2CC(C(=O)O)C2)sc1-c1noc(-c2ccc(Oc3ccccc3)c(F)c2)n1 | 0.142 | –
12000 | 110 | 109 | Cc1ccc(Oc2ccc(-c3nc(-c4csc(CN5CC(C(=O)O)C5)c4)no3)cc2)cc1 | – | –
> 20000 | 850 | > 23 | O=C(O)C1CN(Cc2cc(-c3noc(-c4cccc(-c5ccccc5)c4)n3)cs2)C1 | – | –
> 20000 | 14 | – | CCc1cc(CN2CC(C(=O)O)C2)sc1-c1noc(-c2ccc(Oc3ccccc3)c(OC)c2)n1 | – | –
2000 | 35 | 57 | Cc1ccccc1Oc1ccc(-c2nc(-c3csc(CN4CC(C(=O)O)C4)c3)no2)cc1 | – | –
15000 | 4 | – | CCc1cc(CN2CC(C(=O)O)C2)sc1-c1noc(-c2ccc(Oc3ccccc3OC)cc2)n1 | – | 74
> 20000 | 4 | > 5000 | CCc1cc(CN2CC(C(=O)O)C2)sc1-c1noc(-c2ccc(Oc3ccccc3)cc2)n1 | 0.407 | –
3000 | 21 | 142 | Cc1cc(-c2nc(-c3csc(CN4CC(C(=O)O)C4)c3)no2)ccc1Oc1ccccc1 | – | –
> 20000 | 8.5 | – | CCc1cc(CN2CC(C(=O)O)C2)sc1-c1noc(-c2ccc(Oc3ccccc3F)cc2)n1 | 0.369 | –
> 20000 | 60 | > 333 | CCCOc1ccc(-c2nc(-c3csc(CN4CC(C(=O)O)C4)c3)no2)cc1 | – | –
